Experimental data: patent publication US20250000907A1, “ENGINEERED IMMUNE CELLS WITH REDUCED SIRT6 EXPRESSION” (H. LEE MOFFITT CANCER CENTER AND RESEARCH INSTITUTE, INC., priority 2021, published 2025)

What was measured:
[1] = tested on: patient-derived human NSCLC tumor cells; assay: LDH cytotoxic assay of human NSCLC TILs co-cultured with autologous tumor cells; assay type: cell-based; settings: ex vivo expanded autologous TILs co-cultured with patient-derived NSCLC tumor cells
Procedure: Evaluation of functional cytotoxic activity was performed using Pierce™ LDH Cytotoxicity Assay Kit (Thermo Fisher Scientific) according to the manufacturer's protocol. B16F10 cells or human NSCLC autologous tumor cells were used as target cells. Mouse CD8+ enriched T cells from gp100-stimulated Pmel splenocytes or human NSCLC TILs were used as effector cells. Target tumor cells were co-cultured with effector cells in 96-well round-bottom microplates at the indicated effector:target ratios with and without Sirt6 inhibitor. After 6 hr, the percentage of specific LDH release was calculated according to the following formula: % cell lysis=(experimental value−effector cells spontaneous release−target cells spontaneous release)×100/(target cells maximum release−target cells spontaneous release), where “experimental” corresponds to the experimental signal value, “effector spontaneous” to spontaneous release of LDH from effector cells alone, “target spontaneous” to spontaneous release of LDH from target cells alone and “maximum release” to the maximum release of LDH from target cells in medium containing 1% Triton X-100.

[2] = tested on: human TILs from NSCLC patient tumor samples; assay: Seahorse ECAR of human NSCLC TILs; assay type: cell-based; settings: TILs from 6 NSCLC patients, OSS vs. DMSO
Procedure: Human tumor infiltrating lymphocytes (hTILs) samples isolated from tumor biopsies of patients with non-small cell lung cancer (NSCLC) were generously provided by Moffitt Cancer Center. All human samples remained totally de-identified and no Institutional Review Board (IRB) approval was needed.
(§1) hTILs were maintained in RPMI 1640 Medium, supplemented with 10% human AB serum (Valley Biomedical, Inc.), 1 mM Hepes (Sigma-Aldrich), 1% P/S (Thomas Scientific Inc), 50 μg/ml Gentamicin (ThermoFisher Scientific), 50μM β-mercaptoethanol (ThermoFisher Scientific) and 6000 U/ml of recombinant human IL-2 (Peprotech). For metabolic and functional assays, hTILs were cultured in completed RPMI medium, IL-2 free, on plate-bound anti-CD3 antibody (5 μg/ml; OKT-3, BioXCell) in the presence of vehicle or OSS (Selleck Chemicals) at the indicated concentrations.
Extracellular acidification rate (ECAR) and oxygen consumption rate (OCR) were measured using the Seahorse XF analyzer (Agilent technologies). […] For GST, ECAR and OCR were measured under basal conditions and in response to 10 mM glucose, 1 μM oligomycin and 50 mM 2-DG successively to calculate basal glycolytic rate, glycolytic capacity (in response to oligomycin), and glycolytic reserve (glycolytic capacity-basal rate). […] Results were normalized to total protein quantified using Pierce™ BCA Protein Assay Kit (Thermo Fisher Scientific).

[3] = tested on: stimulated CD8+ T cells from WT vs. Sirt2−/− Pmel mice; assay: IFN-γ ELISPOT assay of stimulated CD8+ T cells from WT vs. Sirt2−/− Pmel mice; assay type: cell-based, mouse; settings: FIG. 3C
Procedure: FIG. 3: Sirtuins in the immune system. A, WB of Sirt1-3,5-7 expression in activated CD3+ T cells from WT vs. Sirt2−/− mice. ECAR measured by Seahorse analyzer (B) and IFN-γ ELISPOT assay (C) in stimulated CD8+ T cells from WT vs. Sirt2−/− Pmel mice treated with vehicle (Ctl), or Sirt6 inhibitor (Sirt6i). *P<0.05, **P<0.01, ****P<0.0001.
(§2) The number of IFN-γ producing cells was evaluated in an ELISPOT assay. Briefly, mouse TILs were plated at 1×10^5 cells and co-cultured with 1×10^3 irradiated B16F10 tumor cells (50 Gray) in the presence of the indicated concentrations of OSS, in a 96-well nitrocellulose flat-bottomed plate (ELISPOT plate, Millipore) pre-coated with an anti-mouse IFN-γ antibody (AN-18, Mabtech, Inc.) and incubated for 48 hr at 37° C. For Pmel T cells, splenocytes were first stimulated with gp100 (1 μg/ml, Anaspec) for 48 hr in the presence of the indicated concentrations of OSS and then transferred to the ELISPOT plate pre-coated with an anti-mouse IFN-γ antibody (AN-18, Mabtech, Inc.) for an additional 48 hr. […] After washing steps and successive biotinylated anti-IFN-γ antibody (R4-6A2, Mabtech, Inc.) and Streptavidin-HRP (BD Bioscience) labeling, spots were detected using AEC Substrate Kit (BD Biosciences) and counted using an AID ELISPOT Reader System (Autoimmun Diagnostika GmbH).

[4] = tested on: Pmel T cells stimulated with gp100; assay: IFN-γ ELISPOT assay of Pmel T cells; assay type: cell-based, mouse; settings: activated Pmel T cells, OSS vs. DMSO, FIG. 7C
Procedure: The number of IFN-γ producing cells was evaluated in an ELISPOT assay. Briefly, mouse TILs were plated at 1×10^5 cells and co-cultured with 1×10^3 irradiated B16F10 tumor cells (50 Gray) in the presence of the indicated concentrations of OSS, in a 96-well nitrocellulose flat-bottomed plate (ELISPOT plate, Millipore) pre-coated with an anti-mouse IFN-γ antibody (AN-18, Mabtech, Inc.) and incubated for 48 hr at 37° C. For Pmel T cells, splenocytes were first stimulated with gp100 (1 μg/ml, Anaspec) for 48 hr in the presence of the indicated concentrations of OSS and then transferred to the ELISPOT plate pre-coated with an anti-mouse IFN-γ antibody (AN-18, Mabtech, Inc.) for an additional 48 hr. For human CD3+ T cells and TILs, cells were first stimulated with plate-coated anti-CD3 for 48 hr in the presence of vehicle or OSS at the indicated concentration and then transferred to the ELISPOT plate pre-coated with an anti-human IFN-γ antibody (1-DIK, Mabtech, Inc.). PMA (10 ng/ml, Sigma-Aldrich) was used as positive assay control. After washing steps and successive biotinylated anti-IFN-γ antibody (R4-6A2, Mabtech, Inc.) and Streptavidin-HRP (BD Bioscience) labeling, spots were detected using AEC Substrate Kit (BD Biosciences) and counted using an AID ELISPOT Reader System (Autoimmun Diagnostika GmbH).

OT-II and Pmel T cells = assay: CFSE proliferation assay; assay type: cell-based, mouse; settings: upon antigenic stimulation ex vivo, 3 days, FIG. 7A
Procedure: Pmel cells and OT-II cells were first labelled with 5 μM of CellTrace™ carboxyl fluorescein succinimidyl ester (CFSE, Thermo Fisher Scientific) for 30 min at room temperature (RT) and then stimulated with gp100 or remained non-stimulated with and without Sirt6 inhibitor (OSS) for 3 days.

[5] = tested on: Pmel T cells stimulated with gp100; assay: Intracellular granzyme B staining by flow cytometry; assay type: cell-based, mouse; settings: activated Pmel T cells, OSS vs. DMSO, FIG. 7B
Procedure: For intracellular cytokine staining, cells were firstly stimulated with phorbol 12-myristate 13-acetate (PMA, 10 ng/ml, Sigma) and ionomycin (1 μM/ml, Sigma) for 1 hour followed by GolgiPlug™ treatment (1% c, BD Biosciences) for 6 h and then stained with IFN-γ (BV711, BD Biosciences) and Granzyme B (Alexa647, Biolegend). Cells were acquired on a BD FACSymphony™ A5 and LSR II (Becton Dickinson), and data were analyzed with FlowJo software Version 10.0 software.

[6] = tested on: human TILs from NSCLC patient tumor samples; assay: IFN-γ ELISPOT assay of human NSCLC TILs; assay type: cell-based; settings: TILs from 6 NSCLC patients, OSS vs. DMSO
Procedure: as §1
as §2, with “C.” for “C. For Pmel T cells, splenocytes were first stimulated with gp100 (1 μg/ml, Anaspec) for 48 hr in the presence of the indicated concentrations of OSS and then transferred to the ELISPOT plate pre-coated with an anti-mouse IFN-γ antibody (AN-18, Mabtech, Inc.) for an additional 48 hr.”

activated CD3+ T cells = assay: RT-PCR mRNA levels in activated T cells; assay type: cell-based, mouse
Description: Total RNA was extracted using the RNeasy Mini Kit (Qiagen; cat. #74106) and reverse transcribed using iScript™ (Biorad). cDNAs were amplified using the “SsoAdvanced™ Universal SYBR® Green Supermix” kit (Biorad) in the CFX Connect™ Real-Time System (Biorad). Sense and antisense primers used were for mouse Sirt6, GLUT1, HK, PFK, LDH, GLS and ASCT2 (primers designed by Biorad and provided as a mixture, PrimePCR™ SYBR® Green Assay).

[7] = activated CD3+ T cells, FIG. 8K

O=C(Nc1ccc(O)c(C(=O)O)c1)c1cccc(NC(=O)c2ccco2)c1 [OSS_128167]
increased: aerobic glycolysis (basal glycolysis, glycolytic capacity) [2] | proliferation (CFSE dilution) (OT-II and Pmel T cells) | IFN-γ production [6] | mRNA expression levels of glutaminase (GLS) (activated CD3+ T cells; [7]) | mRNA expression levels of glutamine transporter (ASCT2) (activated CD3+ T cells; [7]) | mRNA expression levels of glucose transporter (Glut1) (activated CD3+ T cells; activated T cells, FIG. 8G) | mRNA expression levels of hexokinase (HK1) (activated CD3+ T cells; activated T cells, FIG. 8G) | mRNA expression levels of lactate dehydrogenase A (LDHA) (activated CD3+ T cells; activated T cells, FIG. 8G) | mRNA expression levels of phosphofructokinase P (PFKP) (activated CD3+ T cells; activated T cells, FIG. 8G)
increases: effector function of T cells (IFN-γ ELISPOT) ([3]; activated T cells, Sirt6i vs. vehicle) | IFN-γ release [4] | granzyme B expression [5]
enhanced: TIL cytotoxic activity [1]
potentiated: effect on effector function (IFN-γ ELISPOT) with Sirt2 deficiency ([3]; Sirt2−/− Pmel CD8+ T cells)
